Test results published in PubChem BioAssay AID1745844 (Carcinogenic Potency Database (CPDB), 2022).
Active and inactive are the calls of the source. How the calls were made is not given here.

Tested on: rodent lifetime carcinogenesis bioassay, tumor incidence TD50
Assay: chronic cancer bioassays in animals – CPDB, compiled studies (AID 1745844)
[1] = mouse, strain B6AKF1, females, oral dosing, site: any site (literature study), lesion: several types, types named in the paper, dosed 76 weeks, study length 76 weeks
[2] = mouse, strain B6AKF1, females, oral dosing, site: lung, lesion: adenoma, dosed 76 weeks, study length 76 weeks
[3] = mouse, strain B6AKF1, males, oral dosing, site: any site (literature study), lesion: several types, types named in the paper, dosed 76 weeks, study length 76 weeks
[4] = mouse, strain B6AKF1, males, oral dosing, site: lung, lesion: adenoma, dosed 76 weeks, study length 76 weeks
[5] = mouse, strain B6C3F1, females, oral dosing, site: any site (literature study), lesion: several types, types named in the paper, dosed 76 weeks, study length 76 weeks
[6] = mouse, strain B6C3F1, males, oral dosing, site: any site (literature study), lesion: several types, types named in the paper, dosed 76 weeks, study length 76 weeks
[7] = mouse, strain B6C3F1, males, oral dosing, site: liver, lesion: hepatoma, dosed 76 weeks, study length 76 weeks
[8] = mouse, strain B6C3F1, males, oral dosing, site: lung, lesion: adenoma, dosed 76 weeks, study length 76 weeks

## Clc1ccc(C(c2ccc(Cl)cc2)C(Cl)Cl)cc1
[1]
  TD50: 37.4 mg/kg/day
[2]
  TD50: 73 mg/kg/day
[3]
  TD50: 49 mg/kg/day
[4]
  TD50: 82.9 mg/kg/day
mouse, strain B6C3F1, females, in feed, site: any site (literature study), lesion: several types, types named in the paper, dosed 78 weeks, study length 90 weeks
  TD50: 108 mg/kg/day (inactive)
mouse, strain B6C3F1, females, in feed, site: liver, lesion: hepatocellular adenoma + hepatocellular carcinoma + neoplastic nodule, dosed 78 weeks, study length 90 weeks
  TD50: 493 mg/kg/day
[5]
  TD50: 250 mg/kg/day
mouse, strain B6C3F1, females, oral dosing, site: lung, lesion: adenoma, dosed 76 weeks, study length 76 weeks
  TD50: 250 mg/kg/day
mouse, strain B6C3F1, males, in feed, site: any site (literature study), lesion: several types, types named in the paper, dosed 78 weeks, study length 90 weeks
  TD50: 997 mg/kg/day (inactive)
mouse, strain B6C3F1, males, in feed, site: liver, lesion: hepatocellular adenoma + hepatocellular carcinoma + neoplastic nodule, dosed 78 weeks, study length 90 weeks
  TD50: 116 mg/kg/day
[6]
  TD50: 34.8 mg/kg/day
[7]
  TD50: 43.3 mg/kg/day
[8]
  TD50: 120 mg/kg/day
mouse, strain CF-1, females, in feed, site: any site (literature study), lesion: several types, types named in the paper, dosed 123 weeks, study length 123 weeks
  TD50: 67.1 mg/kg/day
mouse, strain CF-1, females, in feed, site: liver, lesion: hepatoma, dosed 123 weeks, study length 123 weeks
  TD50: 4830 mg/kg/day (inactive)
mouse, strain CF-1, females, in feed, site: lung, lesion: several types, types named in the paper, dosed 123 weeks, study length 123 weeks
  TD50: 39.9 mg/kg/day
mouse, strain CF-1, males, in feed, site: any site (literature study), lesion: several types, types named in the paper, dosed 123 weeks, study length 123 weeks
  TD50: 33.2 mg/kg/day
mouse, strain CF-1, males, in feed, site: liver, lesion: hepatoma, dosed 123 weeks, study length 123 weeks
  TD50: 86.8 mg/kg/day
mouse, strain CF-1, males, in feed, site: lung, lesion: several types, types named in the paper, dosed 123 weeks, study length 123 weeks
  TD50: 24.9 mg/kg/day
rat, strain Osborne-Mendel, females, in feed, site: any site (literature study), lesion: several types, types named in the paper, dosed 78 weeks, study length 111 weeks
  carcinogen call: negative (inactive)
rat, strain Osborne-Mendel, females, in feed, site: liver, lesion: hepatocellular adenoma + hepatocellular carcinoma + neoplastic nodule, dosed 78 weeks, study length 111 weeks
  TD50: 2080 mg/kg/day
rat, strain Osborne-Mendel, males, in feed, site: any site (literature study), lesion: several types, types named in the paper, dosed 78 weeks, study length 111 weeks
  TD50: 82.6 mg/kg/day
rat, strain Osborne-Mendel, males, in feed, site: thyroid gland, lesion: follicular-cell adenoma + follicular-cell carcinoma, dosed 78 weeks, study length 111 weeks
  TD50: 75.8 mg/kg/day

## COc1cc(/C=C/C(=O)O[C@H]2CC[C@]34C[C@]35CC[C@]3(C)[C@@H]([C@H](C)CCC=C(C)C)CC[C@@]3(C)[C@@H]5CC[C@H]4C2(C)C)ccc1O
mouse, strain B6C3F1, females, in feed, site: all sites, lesion: malignant lymphoma, dosed 78 weeks, study length 79 weeks
  TD50: 5970 mg/kg/day (inactive)
mouse, strain B6C3F1, females, in feed, site: liver, lesion: hepatocellular carcinoma, dosed 78 weeks, study length 79 weeks
  carcinogen call: negative (inactive)
mouse, strain B6C3F1, females, in feed, site: liver, lesion: neoplastic nodule, dosed 78 weeks, study length 79 weeks
  carcinogen call: negative (inactive)
mouse, strain B6C3F1, females, in feed, site: lung, lesion: alveolar/bronchiolar adenoma, dosed 78 weeks, study length 79 weeks
  carcinogen call: negative (inactive)
mouse, strain B6C3F1, males, in feed, site: all sites, lesion: malignant lymphoma, dosed 78 weeks, study length 79 weeks
  TD50: 15900 mg/kg/day (inactive)
mouse, strain B6C3F1, males, in feed, site: liver, lesion: hepatocellular carcinoma, dosed 78 weeks, study length 79 weeks
  carcinogen call: negative (inactive)
mouse, strain B6C3F1, males, in feed, site: liver, lesion: neoplastic nodule, dosed 78 weeks, study length 79 weeks
  carcinogen call: negative (inactive)
mouse, strain B6C3F1, males, in feed, site: lung, lesion: alveolar/bronchiolar adenocarcinoma, dosed 78 weeks, study length 79 weeks
  carcinogen call: negative (inactive)
mouse, strain B6C3F1, males, in feed, site: lung, lesion: alveolar/bronchiolar adenoma, dosed 78 weeks, study length 79 weeks
  carcinogen call: negative (inactive)
rat, strain F344/DuCrj, females, in feed, site: liver, lesion: neoplastic nodule, dosed 104 weeks, study length 105 weeks
  carcinogen call: negative (inactive)
rat, strain F344/DuCrj, males, in feed, site: liver, lesion: neoplastic nodule, dosed 104 weeks, study length 105 weeks
  TD50: 68500 mg/kg/day (inactive)

## c1ccc2cc(Nc3ccc(Nc4ccc5ccccc5c4)cc3)ccc2c1
[1]
  TD50: 63.8 mg/kg/day (inactive)
mouse, strain B6AKF1, females, oral dosing, site: liver, lesion: hepatoma, dosed 76 weeks, study length 76 weeks
  carcinogen call: negative (inactive)
[2]
  TD50: 221 mg/kg/day (inactive)
[3]
  carcinogen call: negative (inactive)
mouse, strain B6AKF1, males, oral dosing, site: liver, lesion: hepatoma, dosed 76 weeks, study length 76 weeks
  carcinogen call: negative (inactive)
[4]
  carcinogen call: negative (inactive)
[5]
  TD50: 235 mg/kg/day (inactive)
mouse, strain B6C3F1, females, oral dosing, site: liver, lesion: hepatoma, dosed 76 weeks, study length 76 weeks
  carcinogen call: negative (inactive)
mouse, strain B6C3F1, females, oral dosing, site: lung, lesion: several types, types named in the paper, dosed 76 weeks, study length 76 weeks
  carcinogen call: negative (inactive)
[6]
  TD50: 25.9 mg/kg/day (inactive)
[7]
  TD50: 59.4 mg/kg/day (inactive)
[8]
  TD50: 192 mg/kg/day (inactive)

## O=C(NCC1CCCCN1)c1cc(OCC(F)(F)F)ccc1OCC(F)(F)F (stereo not drawn)
mouse, strain Charles River CD1, females, in feed, site: liver, lesion: adenoma, dosed 78 weeks, study length 78 weeks
  carcinogen call: negative (inactive)
mouse, strain Charles River CD1, females, in feed, site: lung, lesion: adenoma, dosed 78 weeks, study length 78 weeks
  TD50: 938 mg/kg/day (inactive)
mouse, strain Charles River CD1, males, in feed, site: liver, lesion: adenoma, dosed 78 weeks, study length 78 weeks
  carcinogen call: negative (inactive)
mouse, strain Charles River CD1, males, in feed, site: liver, lesion: hepatocellular carcinoma, dosed 78 weeks, study length 78 weeks
  carcinogen call: negative (inactive)
mouse, strain Charles River CD1, males, in feed, site: lung, lesion: adenoma, dosed 78 weeks, study length 78 weeks
  carcinogen call: negative (inactive)
rat, strain Charles River Crl:COBS(WI)BR, females, in feed, site: liver, lesion: adenoma, dosed 104 weeks, study length 104 weeks
  carcinogen call: negative (inactive)
rat, strain Charles River Crl:COBS(WI)BR, males, in feed, site: liver, lesion: adenoma, dosed 104 weeks, study length 104 weeks
  TD50: 3580 mg/kg/day (inactive)
rat, strain Charles River Crl:COBS(WI)BR, males, in feed, site: testis, lesion: interstitial-cell adenoma, dosed 104 weeks, study length 104 weeks
  TD50: 79.1 mg/kg/day (inactive)

## CN(N=O)C(=O)N[C@@H](C=O)[C@@H](O)[C@H](O)[C@H](O)CO
mouse, strain Swiss, females, i.p., site: any site (literature study), lesion: benign tumor, dosed 26 weeks, study length 78 weeks
  TD50: 0.188 mg/kg/day
mouse, strain Swiss, females, i.p., site: any site (literature study), lesion: malignant tumor, dosed 26 weeks, study length 78 weeks
  TD50: 6.32 mg/kg/day
mouse, strain Swiss, females, i.p., site: any site (literature study), lesion: several types, types named in the paper, dosed 26 weeks, study length 78 weeks
  TD50: 0.486 mg/kg/day
mouse, strain Swiss, females, i.p., site: kidney, lesion: adenoma, dosed 26 weeks, study length 78 weeks
  TD50: 1.39 mg/kg/day
mouse, strain Swiss, females, i.p., site: lung, lesion: several types, types named in the paper, dosed 26 weeks, study length 78 weeks
  TD50: 0.193 mg/kg/day
mouse, strain Swiss, females, i.p., site: uterus, lesion: sarcoma, dosed 26 weeks, study length 78 weeks
  TD50: 13.9 mg/kg/day
mouse, strain Swiss, males, i.p., site: any site (literature study), lesion: benign tumor, dosed 26 weeks, study length 72 weeks
  TD50: 0.698 mg/kg/day
mouse, strain Swiss, males, i.p., site: any site (literature study), lesion: malignant tumor, dosed 26 weeks, study length 72 weeks
  TD50: 3.53 mg/kg/day
mouse, strain Swiss, males, i.p., site: any site (literature study), lesion: several types, types named in the paper, dosed 26 weeks, study length 72 weeks
  TD50: 0.217 mg/kg/day
mouse, strain Swiss, males, i.p., site: kidney, lesion: tubular-cell adenoma, dosed 26 weeks, study length 72 weeks
  TD50: 2.44 mg/kg/day
mouse, strain Swiss, males, i.p., site: liver, lesion: several types, types named in the paper, dosed 26 weeks, study length 72 weeks
  TD50: 27.3 mg/kg/day
mouse, strain Swiss, males, i.p., site: lung, lesion: several types, types named in the paper, dosed 26 weeks, study length 72 weeks
  TD50: 0.462 mg/kg/day
rat, strain Charles River CD (Sprague-Dawley), females, i.p., site: any site (literature study), lesion: malignant tumor, dosed 26 weeks, study length 78 weeks
  TD50: 0.363 mg/kg/day
rat, strain Charles River CD (Sprague-Dawley), females, i.p., site: any site (literature study), lesion: several types, types named in the paper, dosed 26 weeks, study length 78 weeks
  TD50: 1.14 mg/kg/day
rat, strain Charles River CD (Sprague-Dawley), females, i.p., site: kidney, lesion: several types, types named in the paper, dosed 26 weeks, study length 78 weeks
  TD50: 1.27 mg/kg/day
rat, strain Charles River CD (Sprague-Dawley), females, i.p., site: liver, lesion: cavernous hemangioma, dosed 26 weeks, study length 78 weeks
  TD50: 5.63 mg/kg/day
rat, strain Charles River CD (Sprague-Dawley), females, i.p., site: liver, lesion: several types, types named in the paper, dosed 26 weeks, study length 78 weeks
  TD50: 4.43 mg/kg/day
rat, strain Charles River CD (Sprague-Dawley), females, i.p., site: mammary gland, lesion: carcinoma, dosed 26 weeks, study length 78 weeks
  TD50: 1.41 mg/kg/day
rat, strain Charles River CD (Sprague-Dawley), females, i.p., site: uterus, lesion: sarcoma, dosed 26 weeks, study length 78 weeks
  TD50: 2.46 mg/kg/day
rat, strain Charles River CD (Sprague-Dawley), males, i.p., site: any site (literature study), lesion: benign tumor, dosed 26 weeks, study length 78 weeks
  TD50: 16.8 mg/kg/day
rat, strain Charles River CD (Sprague-Dawley), males, i.p., site: any site (literature study), lesion: malignant tumor, dosed 26 weeks, study length 78 weeks
  TD50: 1.03 mg/kg/day
rat, strain Charles River CD (Sprague-Dawley), males, i.p., site: any site (literature study), lesion: several types, types named in the paper, dosed 26 weeks, study length 78 weeks
  TD50: 0.751 mg/kg/day
rat, strain Charles River CD (Sprague-Dawley), males, i.p., site: kidney, lesion: several types, types named in the paper, dosed 26 weeks, study length 78 weeks
  TD50: 0.776 mg/kg/day
rat, strain Charles River CD (Sprague-Dawley), males, i.p., site: liver, lesion: liver-cell carcinoma, dosed 26 weeks, study length 78 weeks
  TD50: 20.4 mg/kg/day

## CN(C)Nc1nc(-c2ccc([N+](=O)[O-])o2)cs1
rat, strain Sprague-Dawley, females, in feed, site: all sites, lesion: lymphoblastic lymphoma, dosed 46 weeks, study length 66 weeks
  TD50: 16.3 mg/kg/day
rat, strain Sprague-Dawley, females, in feed, site: mammary gland, lesion: adenocarcinoma, dosed 46 weeks, study length 66 weeks
  TD50: 0.391 mg/kg/day
rat, strain Sprague-Dawley, females, in feed, site: mammary gland, lesion: several types, types named in the paper, dosed 46 weeks, study length 66 weeks
  carcinogen call: positive

## O=NN1C[C@H](O)C[C@H]1C(=O)O
rat, strain MRC, females, in drinking water, site: any site (literature study), lesion: several types, types named in the paper, dosed 75 weeks, study length 104 weeks
  TD50: 3.84 mg/kg/day (inactive)
rat, strain MRC, males, in drinking water, site: any site (literature study), lesion: several types, types named in the paper, dosed 75 weeks, study length 104 weeks
  carcinogen call: negative (inactive)
